Like-named read-outs stand apart in the source and are kept apart here.
What was measured:
[1] = Solubility (physico-chemical properties of the 11107 analogues); conditions: in dimethylsulfoxide, pyridine, methanol, acetone and water
[2] = tested on: transcription from VEGF promoter; experiment: VEGF transcription-suppressing activity, VEGF-PLAP reporter in U251/1-8 cell; format: cell-based; conditions: Homo sapiens, U-251, U251/1-8 cell, PLAP activity, low oxygen 18 hours
Outline: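 U251 glioma clone stably carrying a ~2.3 kb human VEGF promoter–secreted PLAP reporter, 4×10^4 cells/well, exposed to 3-fold dilutions of compound for 18 h under low oxygen. Supernatant PLAP read by chemiluminescence at pH 10.0; IC50 = 50% suppression, normoxia 0%, hypoxia 100%.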

[3] = read-out: IC50 values of VEGF transcription-suppressing activity (range given)
[4] = read-out: VEGF transcription suppressing activity (IC50: nM)

Structure (SMILES)	Solubility [1]	IC50 [2, 3]	IC50 [2, 4]
CCC(=O)/C(C)=C/C(O)CC(C)/C=C/C=C(\C)C1OC(=O)CC(O)CCC(C)(O)C(OC(C)=O)/C=C/C1C (stereo not shown) [11107AA]	soluble in dimethylsulfoxide, pyridine, methanol and acetone, and slightly soluble in water	–	–
CCC(O)C(C)C1OC1CC(C)/C=C/C=C(\C)C1OC(=O)CC(O)CCC(O)(COC(C)=O)C(O)/C=C/C1C (stereo not shown) [11107AB]	soluble in dimethylsulfoxide, pyridine, methanol and acetone, and slightly soluble in water	1 to 100 nM	–
CCC(=O)C(C)C1OC1CC(C)/C=C/C=C(\C)C1OC(=O)CC(O)CCC(C)(O)C(O)/C=C/C1C (stereo not shown) [11107AC]	soluble in dimethylsulfoxide, pyridine, methanol and acetone, and slightly soluble in water	–	–
CCC(O)C(C)C1OC1CC(C)/C=C/C=C(\C)C1OC(=O)CC(O)CCC(C)(O)C(OC(C)=O)/C=C/C1C (stereo not shown) [11107AD]	soluble in dimethylsulfoxide, pyridine, methanol and acetone, and slightly soluble in water	–	–
CCC(O)C(O)CC(C)/C=C/C=C(\C)C1OC(=O)CC(O)CCC(C)(O)C(OC(C)=O)/C=C/C1C (stereo not shown) [11107AF]	soluble in dimethylsulfoxide, pyridine, methanol and acetone, and slightly soluble in water	–	–
CCC(O)C(C)C(O)C(O)CC(C)CC/C=C(\C)C1OC(=O)CC(O)CCC(C)(O)C(OC(C)=O)/C=C/C1C (stereo not shown) [11107AG]	soluble in dimethylsulfoxide, pyridine, methanol and acetone, and slightly soluble in water	–	–
CCC(=O)C(C)(O)/C=C/CC(C)/C=C/C1OC(=O)CC(O)CCC(C)(O)C(OC(C)=O)/C=C/C1C (stereo not shown) [11107AH]	soluble in dimethylsulfoxide, pyridine, methanol and acetone, and slightly soluble in water	–	–
CCC(O)C(C)C1OC1CC(C)/C=C/C=C(\C)C1OC(=O)C(C)C(O)CCC(C)(O)C(O)/C=C/C1C (stereo not shown) [11107AI]	soluble in dimethylsulfoxide, pyridine, methanol and acetone, and slightly soluble in water	–	–
CC(=O)OC1/C=C/C(C)C(/C(C)=C/C=C/C(C)C/C=C/C(C)C(O)C(C)O)OC(=O)CC(O)CCC1(C)O (stereo not shown) [11107AJ]	soluble in dimethylsulfoxide, pyridine, methanol and acetone, and slightly soluble in water	1 to 100 nM	–
CCC(O)C(C)C1OC1CC(C)/C=C/C=C(\C)C1OC(=O)CC(O)CCCC(O)/C=C/C1C (stereo not shown) [11107AK]	soluble in dimethylsulfoxide, pyridine, methanol and acetone, and slightly soluble in water	–	–
CCC(=O)C(C)C1OC1CC(C)/C=C/C=C(\C)C1OC(=O)CC(O)/C=C/C(C)(O)C(OC(C)=O)/C=C/C1C (stereo not shown) [11107AL]	soluble in dimethylsulfoxide, pyridine, methanol and acetone, and slightly soluble in water	1 to 100 nM	–
CCC(O)C(C)C1OC1CC(C)/C=C/C=C(\C)C1OC(=O)CC(O)CCC2(CO2)C(OC(C)=O)/C=C/C1C (stereo not shown) [11107AM]	soluble in dimethylsulfoxide, pyridine, methanol and acetone, and slightly soluble in water	1 to 100 nM	2.6 nM
CCC(O)C(C)C1OC1CC(C)/C=C/C=C(\C)C1OC(=O)CC(O)/C=C/C2(CO2)C(OC(C)=O)/C=C/C1C (stereo not shown) [11107AN]	soluble in dimethylsulfoxide, pyridine, methanol and acetone, and slightly soluble in water	1 to 100 nM	–
CCC(O)C(C)C1OC1CC(C)/C=C/C=C(\C)C1OC(=O)CC(O)CCC2(CO2)C(O)/C=C/C1C (stereo not shown) [11107AO]	soluble in dimethylsulfoxide, pyridine, methanol and acetone, and slightly soluble in water	–	–
CCC(O)C(C)C1OC1CC(C)/C=C/C=C(\C)C1OC(=O)CC(O)/C=C/C(C)(OC(C)=O)C(OC(C)=O)/C=C/C1C (stereo not shown) [11107AP]	soluble in dimethylsulfoxide, pyridine, methanol and acetone, and slightly soluble in water	1 to 100 nM	–
CCC(O)C(C)C1OC1CC(C)/C=C/C=C(\C)C1OC(=O)CC(O)CCC(C)(OC(C)=O)C(OC(C)=O)/C=C/C1C (stereo not shown) [11107AQ]	soluble in dimethylsulfoxide, pyridine, methanol and acetone, and slightly soluble in water	1 to 100 nM	–
CC(=O)OC1/C=C/C(C)C(/C(C)=C/C=C/C(C)O)OC(=O)CC(O)CCC1C (stereo not shown) [11107AR]	soluble in dimethylsulfoxide, pyridine, methanol and acetone, and slightly soluble in water	–	–
CC(=O)OC1/C=C/C(C)C(/C(C)=C/C=C/C(C)CC(O)C2OC(C)C(O)C2C)OC(=O)CC(O)CCC1(C)O (stereo not shown) [11107AS]	soluble in dimethylsulfoxide, pyridine, methanol and acetone, and slightly soluble in water	–	–
CCC1OC(CC(C)/C=C/C=C(\C)C2OC(=O)CC(O)CCC(C)(O)C(OC(C)=O)/C=C/C2C)C(O)C1(C)O (stereo not shown) [11107AU]	soluble in dimethylsulfoxide, pyridine, methanol and acetone, and slightly soluble in water	–	–
CCC(=O)C(C)C1OC1CC(C)(O)/C=C/C=C(\C)C1OC(=O)CC(O)CCC(C)(O)C(OC(C)=O)/C=C/C1C (stereo not shown) [11107AV]	soluble in dimethylsulfoxide, pyridine, methanol and acetone, and slightly soluble in water	–	–
CC(=O)OC1/C=C/C(C)C(/C(C)=C/C=C/C(C)CC2OC2C(C)C(O)C(C)O)OC(=O)CC(O)CCC1(C)O (stereo not shown) [11107AW]	soluble in dimethylsulfoxide, pyridine, methanol and acetone, and slightly soluble in water	1 to 100 nM	–

Structure (SMILES)	Solubility [1]	IC50 [2, 3]	IC50 [2, 4]
CCC(O)C(C)C1OC1C(O)C(C)/C=C/C=C(\C)C1OC(=O)CC(O)/C=C/C(C)(O)C(OC(C)=O)/C=C/C1C (stereo not shown) [11107AX]	soluble in dimethylsulfoxide, pyridine, methanol and acetone, and slightly soluble in water	1 to 100 nM	–
CCC1OC1C(O)C(C)/C=C/C=C(\C)C1OC(=O)CC(O)CCC(C)(O)C(OC(C)=O)/C=C/C1C (stereo not shown) [11107AY]	soluble in dimethylsulfoxide, pyridine, methanol and acetone, and slightly soluble in water	1 to 100 nM	–
CC(=O)OC1/C=C/C(C)C(/C(C)=C/C=C/C(C)CC2OC2C(C)C(O)C(C)O)OC(=O)CC(O)CC(O)C1(C)O (stereo not shown) [11107AZ]	soluble in dimethylsulfoxide, pyridine, methanol and acetone, and slightly soluble in water	1 to 100 nM	–
CCC(O)C(C)C1OC1CC(C)/C=C/C=C(\C)C1OC(=O)CC(O)CCC(C)(O)C(O)/C=C/C1C (stereo not shown) [11107A]	soluble in dimethylsulfoxide, pyridine, methanol and acetone, and slightly soluble in water	–	–
CCC(O)C(C)C(O)C(O)CC(C)/C=C/C=C(\C)C1OC(=O)CC(O)/C=C/C(C)(O)C(OC(C)=O)/C=C/C1C (stereo not shown) [11107BA]	soluble in dimethylsulfoxide, pyridine, methanol and acetone, and slightly soluble in water	–	–
CCC1OC1CC(C)(O)/C=C/C=C(\C)C1OC(=O)CC(O)CCC(C)(O)C(OC(C)=O)/C=C/C1C (stereo not shown) [11107BB]	soluble in dimethylsulfoxide, pyridine, methanol and acetone, and slightly soluble in water	–	–
CCC(O)C(C)(O)/C=C/CC(C)/C=C/C1OC(=O)CC(O)CCC(C)(O)C(OC(C)=O)/C=C/C1C (stereo not shown) [11107BC]	soluble in dimethylsulfoxide, pyridine, methanol and acetone, and slightly soluble in water	–	–
CCC(O)C(C)C1OC1CC(C)/C=C/C=C/C1OC(=O)CC(O)CCC(C)(O)C(O)/C=C/C1C (stereo not shown) [11107BD]	soluble in dimethylsulfoxide, pyridine, methanol and acetone, and slightly soluble in water	–	–
CC(=O)OC1/C=C/C(C)C(/C=C/C(C)C/C=C/C(C)O)OC(=O)CC(O)CCC1(C)O (stereo not shown) [11107BE]	soluble in dimethylsulfoxide, pyridine, methanol and acetone, and slightly soluble in water	–	–
CCC(O)C(C)C1OC1C(O)C(C)/C=C/C=C(\C)C1OC(=O)CC(O)CCC(C)(O)C(OC(C)=O)/C=C/C1C (stereo not shown) [11107BF]	soluble in dimethylsulfoxide, pyridine, methanol and acetone, and slightly soluble in water	–	–
CCC1OC1(C)C(O)C(C)/C=C/C=C(\C)C1OC(=O)CC(O)CCC(C)(O)C(OC(C)=O)/C=C/C1C (stereo not shown) [11107BG]	soluble in dimethylsulfoxide, pyridine, methanol and acetone, and slightly soluble in water	1 to 100 nM	–
CCC(O)C(C)C1OC1CC(C)/C=C/C=C(\C)C1OC(=O)CC(O)CC(=O)C(C)(O)C(OC(C)=O)/C=C/C1C (stereo not shown) [11107BH]	soluble in dimethylsulfoxide, pyridine, methanol and acetone, and slightly soluble in water	1 to 100 nM	2.6 nM
CCC(O)C(C)/C=C/CC(C)/C=C/C=C(\C)C1OC(=O)CC(O)CCC(C)(O)C(OC(C)=O)/C=C/C1C (stereo not shown) [11107BI]	soluble in dimethylsulfoxide, pyridine, methanol and acetone, and slightly soluble in water	1 to 100 nM	–
CCC(O)C(C)/C=C/C=C(\C)C1OC(=O)CC(O)CCC(C)C(OC(C)=O)/C=C/C1C (stereo not shown) [11107BJ]	soluble in dimethylsulfoxide, pyridine, methanol and acetone, and slightly soluble in water	–	–
CCC(O)C(C)(O)C1OC1CC(C)/C=C/C=C(\C)C1OC(=O)CC(O)CCC(C)(O)C(OC(C)=O)/C=C/C1C (stereo not shown) [11107E]	soluble in dimethylsulfoxide, pyridine, methanol and acetone, and slightly soluble in water	1 to 100 nM	–
CCC(O)C(C)C(O)C(O)CC(C)/C=C/C=C(\C)C1OC(=O)CC(O)CCC(C)(O)C(OC(C)=O)/C=C/C1C (stereo not shown) [11107O]	soluble in dimethylsulfoxide, pyridine, methanol and acetone, and slightly soluble in water	–	–
CCC(O)C(C)C1OC1CC(C)/C=C/C=C(\C)C1OC(=O)CC(O)/C=C/C(C)(O)C(O)/C=C/C1C (stereo not shown) [11107S]	soluble in dimethylsulfoxide, pyridine, methanol and acetone, and slightly soluble in water	–	–
CCC(O)C(C)C1OC1CC(C)/C=C/C=C(\C)C1OC(=O)CC(O)CCC(C)(O)CCC(=O)C1C (stereo not shown) [11107V]	soluble in dimethylsulfoxide, pyridine, methanol and acetone, and slightly soluble in water	–	–
CCC(O)C(C)C1OC1CC(C)/C=C/C=C(\C)C1OC(=O)C(C)C(O)CCC(C)(O)C(OC(C)=O)/C=C/C1C (stereo not shown) [11107X]	soluble in dimethylsulfoxide, pyridine, methanol and acetone, and slightly soluble in water	–	–
CCC(O)C(C)C1OC1CC(C)/C=C/C=C(\C)C1OC(=O)CC(O)CCC(C)(O)C(OC(=O)NC2CC(C)(C)N(C)C(C)(C)C2)/C=C/C1C (stereo not shown) [B82, (8E,12E,14E)-3,6,21-Trihydroxy-6,10,12,16,20-pentamethyl-7-N-(1,2,2,6,6-pentamethylpiperidin-4-yl)carbamoyloxy-18,19-epoxytricosa-8,12,14-trien-11-olide]	–	0.5 to 100 nM	–

From patent US7667052B2 (Eisai R&D Management Co., Ltd., priority 2003, dated 2010)
